Active and inactive are the calls of the source. No cut-off for these calls is given here.
How the values were obtained:
MV4-11 = experiment: Antiproliferative activity against human MV4-11 cells harbouring FLT3-ITD assessed as inhibition of cell growth measured after 3 days by celltiter-glo luminescent cell viability assay; assay type: functional, cell-based; conditions: MV4-11, 72 h
[1] = molecular target: Cyclin-dependent kinase 1/cyclin B1 (Homo sapiens) (UniProt P06493+P14635); experiment: Inhibition of human CDK1/CyclinB1 at 1 uM by Eurofins-DiscoverX assay; assay type: protein-complex assay
[2] = molecular target: Cyclin-dependent kinase 5/CDK5 activator 1 (Homo sapiens) (UniProt Q00535+Q15078); experiment: Inhibition of human CDK5/p25 at 1 uM by Eurofins-DiscoverX assay; assay type: protein-complex assay
[3] = molecular target: Mast/stem cell growth factor receptor Kit (Homo sapiens) (UniProt P10721); experiment: Inhibition of human c-Kit assessed as remaining activity at 1 uM by Eurofins-DiscoverX assay relative to control
[4] = molecular target: Receptor-type tyrosine-protein kinase FLT3 (Homo sapiens, UniProt P36888, ITD); experiment: Inhibition of FLT3 ITD mutant (unknown origin) using Fluorescein-Poly GT as substrate preincubated for 10 mins followed by substrate addition and measured after 30 mins in presence of ATP by mobility shift assay
[5] = molecular target: Receptor-type tyrosine-protein kinase FLT3 (Homo sapiens, UniProt P36888); experiment: Inhibition of FLT3 (unknown origin) using Fluorescein-Poly GT as substrate preincubated for 10 mins followed by substrate addition and measured after 30 mins in presence of ATP by mobility shift assay
[6] = molecular target: Vascular endothelial growth factor receptor 3 (Homo sapiens, UniProt P35916); experiment: Inhibition of FLT4 (unknown origin) using Fluorescein-Poly GT as substrate preincubated for 10 mins followed by substrate addition and measured after 30 mins in presence of ATP by mobility shift assay
BaF3 = experiment: Antiproliferative activity against mouse BaF3 cells harbouring TEL-FLT3 assessed as inhibition of cell growth measured after 3 days by celltiter-glo luminescent cell viability assay; assay type: functional, cell-based; conditions: BaF3, 72 h
[7] = molecular target: Receptor-type tyrosine-protein kinase FLT3 (Homo sapiens) (UniProt P36888); experiment: Inhibition of FLT3 phosphorylation in human MOLM-13 cells at 0.2 uM measured after 2 hrs by Western blot analysis relative to control; assay type: cell-based
MOLM-13 [8] = experiment: Induction of apoptosis in human MOLM-13 cells assessed as viable cells at 0.3 uM incubated for 48 hrs by Annexin V-FITC/PI staining based flow cytometry analysis (reference value: 91.9%); assay type: functional; conditions: read-out: Activity
MOLM-13 [9] = experiment: Induction of apoptosis in human MOLM-13 cells assessed as early apoptotic cells at 0.3 uM incubated for 48 hrs by Annexin V-FITC/PI staining based flow cytometry analysis (reference value: 4.93%); assay type: functional
MOLM-13 [10] = experiment: Induction of apoptosis in human MOLM-13 cells assessed as early apoptotic cells at 1 uM incubated for 48 hrs by Annexin V-FITC/PI staining based flow cytometry analysis (reference value: 4.93%); assay type: functional
MOLM-13 [11] = experiment: Induction of cell cycle arrest in human MOLM-13 cells assessed as accumulation of cells at S phase at 0.1 uM incubated for 48 hrs (reference value: 41.6%); assay type: functional
MOLM-13 [12] = experiment: Induction of cell cycle arrest in human MOLM-13 cells assessed as accumulation of cells at G2 phase at 0.1 uM incubated for 48 hrs (reference value: […]); assay type: functional
MOLM-13 [13] = experiment: Induction of cell cycle arrest in human MOLM-13 cells assessed as accumulation of cells at G2 phase at 1 uM incubated for 48 hrs (reference value: […]); assay type: functional
[14] = Metabolic stability in Sprague-Dawley rat liver microsomes assessed as half life at 1 uM measured up to 60 mins in presence of NADPH regenerating system by LC-MS/MS analysis; assay type: ADME, Microsome
[15] = Metabolic stability in Sprague-Dawley rat liver microsomes assessed as parent compound remaining at 1 uM measured after 60 mins in presence of NADPH regenerating system by LC-MS/MS analysis; assay type: ADME, Microsome; conditions: read-out: Stability
[16] = Metabolic stability in Sprague-Dawley rat liver microsomes assessed as parent compound remaining at 1 uM measured after 60 mins by LC-MS/MS analysis; assay type: ADME, Microsome; conditions: read-out: Stability
[17] = Metabolic stability in human liver microsomes assessed as intrinsic clearance at 1 uM measured up to 60 mins in presence of NADPH regenerating system by LC-MS/MS analysis; assay type: ADME, Microsome; conditions: read-out: CLH
[18] = Metabolic stability in Beagle dog liver microsomes assessed as half life at 1 uM measured up to 60 mins in presence of NADPH regenerating system by LC-MS/MS analysis; assay type: ADME, Canis lupus familiaris, Microsome
CYP2C9 = CYP2C9 (Homo sapiens, UniProt P11712); experiment: Inhibition of CYP2C9 in human liver microsomes using diclofenac as substrate at 10 uM incubated for 10 mins in presence of NADPH by LC-MS/MS analysis relative to control; assay type: ADME, Microsome; conditions: probe diclofenac
[19] = Half life in mouse at 5 mg/kg, iv; assay type: ADME, organism-based; conditions: in vivo
[20] = AUC (0 to t) in mouse at 10 mg/kg, po; assay type: ADME, organism-based; conditions: in vivo
[21] = MRT (0 to t) in mouse at 10 mg/kg, po; assay type: ADME, organism-based; conditions: in vivo

Receptor-type tyrosine-protein kinase FLT3 (Homo sapiens, UniProt P36888), sequence (P36888 whole entry): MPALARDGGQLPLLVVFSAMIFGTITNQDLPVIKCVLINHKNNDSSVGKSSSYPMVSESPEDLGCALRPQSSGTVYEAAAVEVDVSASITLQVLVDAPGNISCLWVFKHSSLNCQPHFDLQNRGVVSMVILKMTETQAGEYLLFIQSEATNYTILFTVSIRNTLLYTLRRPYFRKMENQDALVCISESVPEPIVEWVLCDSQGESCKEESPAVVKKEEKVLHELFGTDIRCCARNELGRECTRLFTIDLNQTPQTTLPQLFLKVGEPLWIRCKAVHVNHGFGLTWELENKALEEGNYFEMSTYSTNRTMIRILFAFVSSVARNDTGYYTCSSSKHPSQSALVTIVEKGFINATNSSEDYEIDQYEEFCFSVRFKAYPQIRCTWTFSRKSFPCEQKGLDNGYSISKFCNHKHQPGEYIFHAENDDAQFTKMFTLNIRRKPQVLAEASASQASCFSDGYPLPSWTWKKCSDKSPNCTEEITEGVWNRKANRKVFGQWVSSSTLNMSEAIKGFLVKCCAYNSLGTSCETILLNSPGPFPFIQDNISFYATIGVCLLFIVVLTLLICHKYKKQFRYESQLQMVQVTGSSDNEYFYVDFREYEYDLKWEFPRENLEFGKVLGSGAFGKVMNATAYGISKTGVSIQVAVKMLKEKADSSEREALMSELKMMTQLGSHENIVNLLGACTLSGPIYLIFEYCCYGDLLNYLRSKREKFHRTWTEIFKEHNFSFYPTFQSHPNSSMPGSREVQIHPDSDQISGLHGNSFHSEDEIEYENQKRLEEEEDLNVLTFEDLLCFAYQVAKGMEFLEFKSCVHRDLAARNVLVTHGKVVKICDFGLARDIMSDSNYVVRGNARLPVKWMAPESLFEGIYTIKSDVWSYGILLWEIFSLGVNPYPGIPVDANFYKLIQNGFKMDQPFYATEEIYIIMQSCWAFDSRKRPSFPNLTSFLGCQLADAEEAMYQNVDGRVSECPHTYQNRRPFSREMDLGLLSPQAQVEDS
Receptor-type tyrosine-protein kinase FLT3 (Homo sapiens, UniProt P36888, ITD), sequence (P36888 whole entry, looked up, stated change not applied): as the sequence (P36888 whole entry) above
Receptor-type tyrosine-protein kinase FLT3 (Homo sapiens), sequence (P36888 whole entry): as above
Mast/stem cell growth factor receptor Kit (Homo sapiens), sequence (P10721 whole entry): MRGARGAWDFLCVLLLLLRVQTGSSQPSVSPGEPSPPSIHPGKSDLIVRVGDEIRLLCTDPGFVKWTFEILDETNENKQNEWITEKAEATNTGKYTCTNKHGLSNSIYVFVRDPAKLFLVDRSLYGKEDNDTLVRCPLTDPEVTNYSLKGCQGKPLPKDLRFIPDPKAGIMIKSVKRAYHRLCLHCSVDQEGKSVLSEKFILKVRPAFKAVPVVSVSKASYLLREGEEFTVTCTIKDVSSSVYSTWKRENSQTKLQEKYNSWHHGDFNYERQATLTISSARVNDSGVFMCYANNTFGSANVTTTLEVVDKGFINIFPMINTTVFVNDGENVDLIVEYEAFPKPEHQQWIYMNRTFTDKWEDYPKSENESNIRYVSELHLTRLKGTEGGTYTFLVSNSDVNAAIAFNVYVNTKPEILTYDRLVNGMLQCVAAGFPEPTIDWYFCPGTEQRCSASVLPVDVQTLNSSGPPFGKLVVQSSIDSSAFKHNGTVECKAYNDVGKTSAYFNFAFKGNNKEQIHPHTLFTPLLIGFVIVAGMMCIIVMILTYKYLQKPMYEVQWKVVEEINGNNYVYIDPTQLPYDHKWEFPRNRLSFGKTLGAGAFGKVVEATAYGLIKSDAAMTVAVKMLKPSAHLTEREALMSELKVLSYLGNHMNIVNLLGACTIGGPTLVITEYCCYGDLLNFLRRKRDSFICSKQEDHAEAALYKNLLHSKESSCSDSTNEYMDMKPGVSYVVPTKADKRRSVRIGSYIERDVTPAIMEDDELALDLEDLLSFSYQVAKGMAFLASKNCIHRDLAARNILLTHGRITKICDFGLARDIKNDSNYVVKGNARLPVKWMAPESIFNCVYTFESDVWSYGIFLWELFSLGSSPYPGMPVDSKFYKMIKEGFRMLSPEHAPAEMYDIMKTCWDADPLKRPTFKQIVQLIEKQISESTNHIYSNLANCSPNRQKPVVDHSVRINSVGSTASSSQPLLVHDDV
Vascular endothelial growth factor receptor 3, sequence (P35916 whole entry): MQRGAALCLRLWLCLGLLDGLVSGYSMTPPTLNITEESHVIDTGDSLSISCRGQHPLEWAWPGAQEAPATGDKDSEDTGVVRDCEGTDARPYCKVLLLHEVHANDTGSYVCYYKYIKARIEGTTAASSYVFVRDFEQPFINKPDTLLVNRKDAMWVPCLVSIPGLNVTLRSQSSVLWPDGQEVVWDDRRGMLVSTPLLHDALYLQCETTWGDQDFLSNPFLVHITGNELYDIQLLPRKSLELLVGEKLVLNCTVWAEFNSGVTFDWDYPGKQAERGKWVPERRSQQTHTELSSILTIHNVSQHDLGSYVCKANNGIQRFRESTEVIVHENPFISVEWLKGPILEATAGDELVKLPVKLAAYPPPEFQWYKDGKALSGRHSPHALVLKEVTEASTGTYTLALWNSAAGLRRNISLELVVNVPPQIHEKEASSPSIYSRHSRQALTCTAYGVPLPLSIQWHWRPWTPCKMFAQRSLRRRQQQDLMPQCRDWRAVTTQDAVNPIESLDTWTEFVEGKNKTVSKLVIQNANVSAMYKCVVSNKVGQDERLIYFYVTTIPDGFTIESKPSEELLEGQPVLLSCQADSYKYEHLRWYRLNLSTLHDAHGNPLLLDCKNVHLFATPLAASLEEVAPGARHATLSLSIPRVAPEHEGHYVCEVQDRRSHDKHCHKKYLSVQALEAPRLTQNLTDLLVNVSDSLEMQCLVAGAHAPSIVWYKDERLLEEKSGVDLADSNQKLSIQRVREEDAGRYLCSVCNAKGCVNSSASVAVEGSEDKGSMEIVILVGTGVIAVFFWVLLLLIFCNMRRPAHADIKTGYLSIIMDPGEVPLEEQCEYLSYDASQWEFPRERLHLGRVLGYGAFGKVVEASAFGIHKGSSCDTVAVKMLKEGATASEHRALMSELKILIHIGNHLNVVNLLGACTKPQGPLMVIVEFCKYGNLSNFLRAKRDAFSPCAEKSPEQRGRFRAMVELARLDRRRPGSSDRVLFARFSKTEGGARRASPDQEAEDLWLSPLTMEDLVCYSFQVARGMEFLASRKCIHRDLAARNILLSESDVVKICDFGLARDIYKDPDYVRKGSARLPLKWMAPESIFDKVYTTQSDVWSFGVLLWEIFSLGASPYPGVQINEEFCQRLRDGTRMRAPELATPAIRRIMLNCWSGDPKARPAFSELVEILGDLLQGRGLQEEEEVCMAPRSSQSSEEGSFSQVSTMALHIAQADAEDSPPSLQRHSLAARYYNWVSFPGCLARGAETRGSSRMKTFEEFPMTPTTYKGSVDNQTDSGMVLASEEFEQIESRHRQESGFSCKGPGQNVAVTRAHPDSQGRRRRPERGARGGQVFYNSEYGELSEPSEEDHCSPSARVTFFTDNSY
Cyclin-dependent kinase 1/cyclin B1 (Homo sapiens), sequence (P06493 whole entry, looked up): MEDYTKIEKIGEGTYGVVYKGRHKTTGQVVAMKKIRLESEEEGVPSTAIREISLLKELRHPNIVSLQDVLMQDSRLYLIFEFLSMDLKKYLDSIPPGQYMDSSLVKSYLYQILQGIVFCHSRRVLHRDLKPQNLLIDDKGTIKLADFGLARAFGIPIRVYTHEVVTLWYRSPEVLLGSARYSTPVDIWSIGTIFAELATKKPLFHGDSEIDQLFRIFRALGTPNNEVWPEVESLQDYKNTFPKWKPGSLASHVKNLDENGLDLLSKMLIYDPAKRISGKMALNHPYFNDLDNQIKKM
Cyclin-dependent kinase 1/cyclin B1 (Homo sapiens), sequence (P14635 whole entry, looked up): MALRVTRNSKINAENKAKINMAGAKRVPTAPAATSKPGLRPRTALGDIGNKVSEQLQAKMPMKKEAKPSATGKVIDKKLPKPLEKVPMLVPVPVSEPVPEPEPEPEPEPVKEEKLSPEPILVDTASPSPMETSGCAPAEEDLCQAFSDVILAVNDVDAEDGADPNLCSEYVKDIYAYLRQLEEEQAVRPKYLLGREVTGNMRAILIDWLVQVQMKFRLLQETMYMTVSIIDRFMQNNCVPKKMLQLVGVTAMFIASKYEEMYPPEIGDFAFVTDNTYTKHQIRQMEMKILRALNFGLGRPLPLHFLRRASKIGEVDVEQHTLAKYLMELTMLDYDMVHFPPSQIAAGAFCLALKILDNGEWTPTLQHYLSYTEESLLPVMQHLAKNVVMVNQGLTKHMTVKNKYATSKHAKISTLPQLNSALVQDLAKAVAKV
Cyclin-dependent kinase 5/CDK5 activator 1 (Homo sapiens), sequence (Q00535 whole entry): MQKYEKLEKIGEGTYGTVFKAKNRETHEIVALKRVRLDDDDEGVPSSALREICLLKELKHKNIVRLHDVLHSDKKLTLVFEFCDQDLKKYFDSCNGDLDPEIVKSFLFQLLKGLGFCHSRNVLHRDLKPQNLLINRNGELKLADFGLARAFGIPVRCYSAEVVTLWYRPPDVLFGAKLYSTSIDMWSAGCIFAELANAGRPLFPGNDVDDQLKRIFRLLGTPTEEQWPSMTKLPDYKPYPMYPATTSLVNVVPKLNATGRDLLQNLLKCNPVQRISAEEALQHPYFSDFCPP
Cyclin-dependent kinase 5/CDK5 activator 1 (Homo sapiens), sequence (Q15078 99-307 partner limits assumed): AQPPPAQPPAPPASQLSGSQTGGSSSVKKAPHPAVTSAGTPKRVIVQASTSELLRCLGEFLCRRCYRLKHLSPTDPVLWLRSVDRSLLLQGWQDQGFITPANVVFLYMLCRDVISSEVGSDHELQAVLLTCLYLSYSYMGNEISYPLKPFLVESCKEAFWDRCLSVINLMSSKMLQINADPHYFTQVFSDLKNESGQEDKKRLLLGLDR

IC50 (MV4-11): 390 nM
inhibition [1]: inactive
inhibition [2]: inactive
Activity [3]: 88%
IC50 [4]: 153 nM
IC50 [5]: 475 nM
IC50 [6]: 166 nM
IC50 (BaF3): 3690 nM
inhibition [7]: 100%
half-life at 1 µM [14]: 1.95 h
remaining at 1 h, 1 µM [15]: 69.2%
remaining at 1 h, 1 µM [16]: 108%
microsomal CLint at 1 µM [17]: 12.7 µL/min/mg
half-life at 1 µM [18]: 2.1 h
inhibition at 10 min, 10 µM (CYP2C9): 25.6%
half-life [19]: 6.57 h
AUC(0-t) [20]: 1400 ng·h/mL
MRT last [21]: 3.37 h
Structure (SMILES): Cc1cc(=O)n(-c2cc(Cl)ccc2F)nc1C(=O)Nc1ccc(Oc2ccnc(NC(=O)N3CC(O)C3)c2)c(F)c1
viability at 0.3 µM (MOLM-13 [8]): 74.2%
Activity (MOLM-13 [9]): 13.4%
Activity (MOLM-13 [10]): 29.6%
Activity (MOLM-13 [11]): 40.5%
Activity (MOLM-13 [12]): 9.39%
Activity (MOLM-13 [13]): 0%
